According to ChEMBL document CHEMBL1201862, “PubChem BioAssay data set” (2004):
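Assay format: 96-well plates, 48-hour exposure. GI50 is the concentration that inhibits growth by half.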 Calls of active or inactive are those of the source. Rule as the data show it: active = GI50 up to about 1.1 µM and inactive = higher.

Key:
Assay in all cases: NCI anticancer screen, dose series, 48 h
KM12 = tested on: KM12
A549 = tested on: A549
SNB-75 = tested on: SNB-75
UACC-257 = tested on: UACC-257
MCF7 = tested on: MCF7
Malme-3M = tested on: Malme-3M
EKVX = tested on: EKVX
SF-539 = tested on: SF-539
RXF 393 = tested on: RXF 393
SF-295 = tested on: SF-295
OVCAR-4 = tested on: OVCAR-4
NCI-H460 = tested on: NCI-H460
SN12C = tested on: SN12C
OVCAR-5 = tested on: OVCAR-5
COLO 205 = tested on: COLO 205
HCT-15 = tested on: HCT-15
HOP-62 = tested on: HOP-62
SK-MEL-5 = tested on: SK-MEL-5
NCI-H522 = tested on: NCI-H522
SNB-19 = tested on: SNB-19

| SMILES | GI50 (KM12) | GI50 (A549) | GI50 (SNB-75) | GI50 (UACC-257) | GI50 (MCF7) | GI50 (Malme-3M) | GI50 (EKVX) | GI50 (SF-539) | GI50 (RXF 393) | GI50 (SF-295) | GI50 (OVCAR-4) | GI50 (NCI-H460) | GI50 (SN12C) | GI50 (OVCAR-5) | GI50 (COLO 205) | GI50 (HCT-15) [µM] | GI50 (HOP-62) | GI50 (SK-MEL-5) | GI50 (NCI-H522) | GI50 (SNB-19) |
| --- | --- | --- | --- | --- | --- | --- | --- | --- | --- | --- | --- | --- | --- | --- | --- | --- | --- | --- | --- | --- |
| COc1cc2c(cc1OC)C(=O)/C(=C/c1cc(C)c(O)c(C)c1)C2 | < 0.01 µM (active) | < 0.0165 µM (active) | < 0.01 µM (active) | 0.755 µM (active) | < 0.0148 µM (active) | < 0.01 µM (active) | < 0.01 µM (active) | < 0.01 µM (active) | < 0.0504 µM (active) | < 0.018 µM (active) | > 100 µM (inactive) | < 0.01 µM (active) | 0.0244 µM (active) | 1.63 µM (inactive) | 5.02 µM (inactive) | < 0.01 | < 0.01 µM (active) | < 0.01 µM (active) | < 0.01 µM (active) |  |
| O=c1oc2c(ccc3occc32)c(N2CCCCC2)c1-c1ccccc1 | > 66.5 µM (inactive) | > 93.3 µM (inactive) | > 80.7 µM (inactive) |  | > 93.5 µM (inactive) | > 100 µM (inactive) | > 70.8 µM (inactive) | > 100 µM (inactive) | > 64.3 µM (inactive) | 97.3 µM (inactive) | > 93.3 µM (inactive) | > 96.4 µM (inactive) | > 100 µM (inactive) | > 100 µM (inactive) | > 100 µM (inactive) | > 80 | > 100 µM (inactive) | > 72.4 µM (inactive) | > 86.3 µM (inactive) | > 100 µM (inactive) |
| N/C(=N\Nc1nc2cc([N+](=O)[O-])ccc2o1)c1ccccn1 | 0.372 µM (active) | 0.163 µM (active) | 0.817 µM (active) | 0.0929 µM (active) | 0.12 µM (active) | 0.401 µM (active) | 0.0257 µM (active) | 0.124 µM (active) | 0.0622 µM (active) | 0.207 µM (active) | 0.179 µM (active) | 0.0468 µM (active) | 0.189 µM (active) | 0.137 µM (active) | 0.0366 µM (active) | 0.0287 | 0.232 µM (active) | 0.157 µM (active) | 0.043 µM (active) | 0.506 µM (active) |
| CN(C)CCCN1c2ccc([N+](=O)[O-])cc2CCc2cc([N+](=O)[O-])ccc21 | 16 µM (inactive) | 16.4 µM (inactive) | 15.3 µM (inactive) | 13.9 µM (inactive) | 15.6 µM (inactive) | 17.8 µM (inactive) | 15.2 µM (inactive) | 18.3 µM (inactive) | 11.7 µM (inactive) | 15.6 µM (inactive) |  | 12.6 µM (inactive) | 15 µM (inactive) | 13.9 µM (inactive) | 14.2 µM (inactive) | 17.4 | 12.5 µM (inactive) | 10.6 µM (inactive) | 17.4 µM (inactive) | 15.4 µM (inactive) |
| Clc1ccc(OCC2NC3CCC2CC3)cn1 (stereo unspecified) | 18.4 µM (inactive) | 37.9 µM (inactive) | 61 µM (inactive) | 17.8 µM (inactive) | 17.9 µM (inactive) | 19.5 µM (inactive) | 26.3 µM (inactive) | 20.7 µM (inactive) | 36.9 µM (inactive) | 19.8 µM (inactive) | 37.9 µM (inactive) | 21.3 µM (inactive) | 28.4 µM (inactive) | 52 µM (inactive) | 17.1 µM (inactive) | 20.7 | 22.8 µM (inactive) | 17.6 µM (inactive) | 19 µM (inactive) | 34.4 µM (inactive) |
| COc1cc(C2c3cc4c(cc3OC(NCCO)C2C)OCO4)cc(OC)c1O (stereo unspecified) | 6.78 µM (inactive) | 10.1 µM (inactive) | 7.45 µM (inactive) |  | 9.29 µM (inactive) | 6.37 µM (inactive) |  | 13.9 µM (inactive) | 20.4 µM (inactive) | 5.48 µM (inactive) | > 100 µM (inactive) |  | 4.6 µM (inactive) | 30.7 µM (inactive) | 21.2 µM (inactive) | 3.44 |  | 4.86 µM (inactive) | 3.27 µM (inactive) | 29.2 µM (inactive) |
| Cc1ccc(S(=O)(=O)NC(=O)Nc2ccc(C(=O)O)cc2)cc1 | > 100 µM (inactive) | > 100 µM (inactive) | > 100 µM (inactive) | > 100 µM (inactive) | > 100 µM (inactive) | > 100 µM (inactive) |  | > 100 µM (inactive) | > 100 µM (inactive) | > 100 µM (inactive) | > 100 µM (inactive) | > 100 µM (inactive) | > 100 µM (inactive) | > 100 µM (inactive) | > 100 µM (inactive) | > 100 | > 100 µM (inactive) | > 100 µM (inactive) | > 100 µM (inactive) | > 100 µM (inactive) |
| COc1ccccc1CNCCCCCNCCCCCCCCCCNCCCCCNCc1ccccc1OC | 4.54 µM (inactive) | 23.4 µM (inactive) | 25.6 µM (inactive) |  | 18 µM (inactive) | 24.8 µM (inactive) |  | 8.65 µM (inactive) | 31 µM (inactive) | 24.7 µM (inactive) | 79.1 µM (inactive) | 13.8 µM (inactive) | 27.4 µM (inactive) |  | 34.3 µM (inactive) | > 100 | 16 µM (inactive) | 34.1 µM (inactive) | 19.8 µM (inactive) | 38.1 µM (inactive) |
| CCOC(=O)C1c2[nH]c3ccccc3c2CCN1C(=O)c1ccc(OC)o1 (stereo unspecified) | > 10 µM (inactive) |  | 5.78 µM (inactive) | > 10 µM (inactive) | > 10 µM (inactive) | 1.29 µM (inactive) | > 10 µM (inactive) | > 10 µM (inactive) | > 10 µM (inactive) | > 10 µM (inactive) | > 10 µM (inactive) | > 10 µM (inactive) | > 10 µM (inactive) | > 10 µM (inactive) | > 10 µM (inactive) | > 10 | > 10 µM (inactive) | > 10 µM (inactive) | > 10 µM (inactive) | > 10 µM (inactive) |
| CCN(CC)CCCNc1nc(=O)[nH]c(C)c1C(=O)Nc1cccc2cc3ccccc3cc12 | 45.9 µM (inactive) | > 100 µM (inactive) | > 100 µM (inactive) | > 100 µM (inactive) | > 100 µM (inactive) | > 100 µM (inactive) | > 100 µM (inactive) | > 100 µM (inactive) | 78.7 µM (inactive) | > 100 µM (inactive) | > 100 µM (inactive) |  | > 100 µM (inactive) | > 100 µM (inactive) | > 100 µM (inactive) | > 100 | > 100 µM (inactive) | > 100 µM (inactive) | 85.3 µM (inactive) | > 100 µM (inactive) |
| COC(=O)/C=C1/OC(c2ccccc2)=C(Br)C1=O | 55.5 µM (inactive) |  | 45 µM (inactive) | 73.3 µM (inactive) | 34.3 µM (inactive) | 49 µM (inactive) | > 100 µM (inactive) | 45.9 µM (inactive) | 48.2 µM (inactive) |  | 55.7 µM (inactive) | 35.9 µM (inactive) | 37.1 µM (inactive) | > 100 µM (inactive) | > 100 µM (inactive) | 10.6 | > 100 µM (inactive) | 20.3 µM (inactive) | 25.1 µM (inactive) | 79.1 µM (inactive) |
| COc1ccc(-c2c(C#N)c(S)n(NS(=O)(=O)c3ccccc3)c(=O)c2C#N)cc1 | 70.6 µM (inactive) | 56.2 µM (inactive) | > 100 µM (inactive) | 80.9 µM (inactive) | 59.6 µM (inactive) | > 96.6 µM (inactive) |  | 24.5 µM (inactive) | 37.8 µM (inactive) | 77.3 µM (inactive) | 46.6 µM (inactive) | 48.5 µM (inactive) | 46.5 µM (inactive) | > 100 µM (inactive) | 58.1 µM (inactive) | 40.6 | > 100 µM (inactive) | 36.7 µM (inactive) | 26.4 µM (inactive) | > 100 µM (inactive) |
| CN(C)Cc1cc(/N=N/c2c(Cl)cccc2Cl)ccc1O | > 100 µM (inactive) | 61.5 µM (inactive) | > 100 µM (inactive) | 79.6 µM (inactive) | > 100 µM (inactive) | 74.5 µM (inactive) | > 100 µM (inactive) | > 100 µM (inactive) | 23.4 µM (inactive) | > 100 µM (inactive) | > 100 µM (inactive) | 75 µM (inactive) | > 100 µM (inactive) |  | > 100 µM (inactive) | > 100 | > 100 µM (inactive) | 17.5 µM (inactive) | > 100 µM (inactive) | > 100 µM (inactive) |
| CCCC/C=C1\CCC(CN2CCOCC2)C1=O (stereo unspecified) | 1.8 µM (inactive) | 20.4 µM (inactive) | 2.27 µM (inactive) | 5.28 µM (inactive) | 1.53 µM (inactive) | 2.19 µM (inactive) | 11.2 µM (inactive) | 7.73 µM (inactive) | 1.51 µM (inactive) | 16.3 µM (inactive) | 11.7 µM (inactive) | 18.2 µM (inactive) | 4.57 µM (inactive) | 17.4 µM (inactive) | 2.97 µM (inactive) |  | 15.7 µM (inactive) | 12 µM (inactive) | 0.809 µM (active) | 15.8 µM (inactive) |
| CCCCCCc1cn([C@H]2C[C@H](O)[C@@H](CO)O2)c(=O)[nH]c1=O | > 100 µM (inactive) | > 100 µM (inactive) | > 100 µM (inactive) | > 100 µM (inactive) | > 100 µM (inactive) | > 100 µM (inactive) | > 100 µM (inactive) | > 100 µM (inactive) | > 100 µM (inactive) | > 31.6 µM (inactive) | > 100 µM (inactive) | > 100 µM (inactive) | > 100 µM (inactive) | > 100 µM (inactive) |  | > 100 | > 10 µM (inactive) | > 100 µM (inactive) | > 100 µM (inactive) | > 100 µM (inactive) |
